≈ marks a conversion by molar mass, not a printed value.
Key:
[1] = tested on: Mycobacterium tuberculosis; assay: Antibacterial activity against Mycobacterium tuberculosis H37Rv measured every 24 hrs for 7 days by MABA assay; format: functional
[2] = tested on: Mycobacterium tuberculosis; assay: Antibacterial activity against Mycobacterium tuberculosis NHN382 clinical isolates measured every 24 hrs for 7 days by MABA assay; format: functional
[3] = tested on: Mycobacterium tuberculosis; assay: Antibacterial activity against Mycobacterium tuberculosis TN587 clinical isolates measured every 24 hrs for 7 days by MABA assay; format: functional
[4] = tested on: Mycobacterium tuberculosis; assay: Antibacterial activity against Mycobacterium tuberculosis W210 clinical isolates measured every 24 hrs for 7 days by MABA assay; format: functional
[5] = tested on: Mycobacterium tuberculosis; assay: In vivo antibacterial activity against Mycobacterium tuberculosis str. Erdman infected in C57BL/6 mouse assessed as reduction in bacterial load in spleens at 50 mg/kg, ip bid on day 5 to 14 post infection measured on day 15 post infection; format: functional, Erdman = ATCC 35801
[6] = tested on: Mycobacterium tuberculosis; assay: Antibacterial activity against Mycobacterium tuberculosis NHN20 clinical isolates measured every 24 hrs for 7 days by MABA assay; format: functional
[7] = tested on: Mycobacterium tuberculosis; assay: In vivo antibacterial activity against Mycobacterium tuberculosis H37Rv infected in GKO-TB mouse assessed as reduction in bacterial load in lungs at 50 mg/kg, ip or po bid for 10 consecutive days; format: functional
[8] = tested on: Escherichia coli; assay: Antibacterial activity against Escherichia coli ATCC 25922 after 18 hrs by broth microdilution method; format: functional; conditions: ATCC 25922, 18 h
[9] = tested on: Staphylococcus aureus; assay: Antibacterial activity against methicillin-resistant Staphylococcus aureus ATCC BAA-41 after 18 hrs by broth microdilution method; format: functional; conditions: ATCC BAA-41, 18 h
[10] = tested on: Enterococcus faecalis; assay: Antimicrobial activity against vancomycin-resistant Enterococcus faecalis after 18 hrs by broth microdilution method; format: functional
[11] = tested on: Enterococcus faecalis; assay: Antimicrobial activity against vancomycin-sensitive Enterococcus faecalis after 18 hrs by broth microdilution method; format: functional
[12] = tested on: Klebsiella pneumoniae; assay: Antibacterial activity against Klebsiella pneumoniae ATCC BAA-1144 after 18 hrs by broth microdilution method; format: functional; conditions: ATCC BAA-1144, 18 h
[13] = tested on: Staphylococcus aureus; assay: Antibacterial activity against methicillin-sensitive Staphylococcus aureus after 18 hrs by broth microdilution method; format: functional
[14] = tested on: Escherichia coli; assay: Antibacterial activity against Escherichia coli by broth dilution method; format: functional
[15] = tested on: Bacillus subtilis; assay: Antibacterial activity against Bacillus subtilis by broth dilution method; format: functional
[16] = tested on: Staphylococcus aureus; assay: Antibacterial activity against methicillin-resistant Staphylococcus aureus by broth dilution method; format: functional
[17] = tested on: Bacillus subtilis; assay: Antibacterial activity against Bacillus subtilis; format: functional
[18] = tested on: Staphylococcus aureus; assay: Antibacterial activity against methicillin-resistant Staphylococcus aureus; format: functional
[19] = tested on: Staphylococcus aureus; assay: Antibacterial activity against multi-drug resistant Staphylococcus aureus; format: functional
[20] = Toxicity in mouse infected with Staphylococcus aureus assessed as survival at 30 mg/kg, iv or po; format: organism-based; conditions: in vivo
[21] = Half life in iv dosed BALB/c mouse administered 1 hr after ABT addition by LC-MS/MS analysis; format: ADME, organism-based; conditions: in vivo
[22] = tested on: Staphylococcus aureus; assay: In vivo antibacterial activity against methicillin-resistant Staphylococcus aureus ATCC 33591 infected in ICR(CD-1) mouse thigh infection model assessed as reduction in colony forming units in thigh muscle at 120 to 160 mg/kg, po measured 24 hrs post infection; format: functional
[23] = target: T1, Cell division protein FtsZ (Escherichia coli K-12, UniProt P0A9A6); assay: Inhibition of recombinant Escherichia coli K12 FtsZ assembly by light-scattering assay
T1 sequence (P0A9A6 whole entry): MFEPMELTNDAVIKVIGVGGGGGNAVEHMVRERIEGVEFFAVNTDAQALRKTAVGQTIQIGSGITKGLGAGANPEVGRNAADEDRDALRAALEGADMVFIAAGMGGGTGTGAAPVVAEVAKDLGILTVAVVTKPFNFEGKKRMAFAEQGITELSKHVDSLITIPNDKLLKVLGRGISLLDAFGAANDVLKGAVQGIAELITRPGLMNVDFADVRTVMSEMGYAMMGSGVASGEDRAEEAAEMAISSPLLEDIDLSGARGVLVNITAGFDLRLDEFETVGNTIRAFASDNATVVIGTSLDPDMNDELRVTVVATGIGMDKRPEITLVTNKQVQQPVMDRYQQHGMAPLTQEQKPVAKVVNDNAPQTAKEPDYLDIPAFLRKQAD

[24] = target: T1, Cell division protein FtsZ; assay: Inhibition of recombinant Escherichia coli K12 FtsZ GTPase activity by malachite green sodium molybdate assay
[25] = tested on: Staphylococcus aureus; assay: Antibacterial activity against methicillin-resistant Staphylococcus aureus after 16 to 24 hrs by microdilution method; format: functional
[26] = tested on: Staphylococcus aureus; assay: Antibacterial activity against methicillin-sensitive Staphylococcus aureus after 16 to 24 hrs by microdilution method; format: functional
[27] = tested on: Staphylococcus aureus; assay: Antibacterial activity against vancomycin-intermediate Staphylococcus aureus isolates after 16 to 24 hrs by microdilution method; format: functional
[28] = tested on: Staphylococcus aureus; assay: Antibacterial activity against vancomycin-resistant Staphylococcus aureus isolates after 16 to 24 hrs by microdilution method; format: functional
[29] = tested on: Staphylococcus aureus; assay: Antibacterial activity against Daptomycin-nonsusceptible Staphylococcus aureus isolates after 16 to 24 hrs by microdilution method; format: functional
[30] = tested on: Staphylococcus aureus; assay: Antibacterial activity against linezolid-nonsusceptible Staphylococcus aureus isolates after 16 to 24 hrs by microdilution method; format: functional
[31] = tested on: Escherichia coli; assay: Antibacterial activity against Escherichia coli; format: functional
[32] = tested on: Salmonella typhimurium; assay: Antibacterial activity against Salmonella typhimurium; format: functional, Salmonella enterica subsp. enterica serovar Typhimurium; conditions: Salmonella enterica
[33] = tested on: Staphylococcus aureus; assay: Antibacterial against methicillin-resistant Staphylococcus aureus; format: functional
[34] = tested on: Priestia megaterium; assay: Antibacterial against Bacillus megaterium; format: functional
[35] = tested on: Mycobacterium tuberculosis; assay: In vivo antibacterial activity against Mycobacterium tuberculosis H37Rv infected in C57BL/6 GKO-mouse assessed as reduction in bacterial load in lungs at 150 mg/kg, ip qd on day 12 post infection for 9 consecutive days; format: functional
[36] = tested on: Mycobacterium tuberculosis; assay: In vivo antibacterial activity against Mycobacterium tuberculosis H37Rv infected in C57BL/6 GKO-mouse assessed as reduction in bacterial load in spleens at 150 mg/kg, ip qd on day 12 post infection for 9 consecutive days; format: functional
[37] = tested on: Bacillus subtilis; assay: Antibacterial activity against Bacillus subtilis after 4 hrs; format: functional
[38] = tested on: Mycolicibacterium smegmatis; assay: Antibacterial activity against Mycobacterium smegmatis after 4 hrs; format: functional
[39] = tested on: Bacillus subtilis; assay: Antibacterial activity against Bacillus subtilis 168 after 12 hrs by agar dilution assay; format: functional; conditions: subsp. subtilis str. 168, 12 h
[40] = tested on: Mycolicibacterium smegmatis; assay: Antibacterial activity against Mycobacterium smegmatis after 12 hrs by agar dilution assay; format: functional

CN(C)c1cc2[nH]c(C3CCCCC3)nc2cc1NC(=O)c1ccc(OC(F)(F)F)cc1
MIC99 [1]: 0.16 µg/mL (≈ 0.358 µM) | MIC99 [2]: 0.16 µg/mL (≈ 0.358 µM) | MIC99 [3]: 0.16 µg/mL (≈ 0.358 µM) | MIC99 [4]: 0.16 µg/mL (≈ 0.358 µM) | Activity [5]: 2.68 log10CFU

CN(C)c1cc2[nH]c(C3CCCCC3)nc2cc1NC(=O)c1ccc(OC(F)(F)F)c(F)c1F
MIC99 [1]: 0.39 µg/mL (≈ 0.808 µM) | MIC99 [2]: 0.37 µg/mL (≈ 0.767 µM) | MIC99 [3]: 0.31 µg/mL (≈ 0.643 µM) | MIC99 [4]: 0.47 µg/mL (≈ 0.974 µM) | MIC99 [6]: 0.39 µg/mL (≈ 0.808 µM) | Activity [7]: 2.5 - 3.4 log10CFU

O=C/C=C/c1ccccc1 [CINNAMALDEHYDE]
MIC [8]: 32 to 128 µg/mL (≈ 242 to 969 µM) | MIC [9]: 2 to 8 µg/mL (≈ 15.1 to 60.5 µM) | MIC [10]: 4 to 16 µg/mL (≈ 30.3 to 121 µM) | MIC [11]: 4 to 16 µg/mL (≈ 30.3 to 121 µM) | MIC [12]: 32 to 128 µg/mL (≈ 242 to 969 µM) | MIC [13]: 2 to 8 µg/mL (≈ 15.1 to 60.5 µM) | MIC [14]: 0.1 µg/mL (≈ 0.757 µM) | MIC [15]: 0.5 µg/mL (≈ 3.78 µM) | MIC [16]: 0.25 µg/mL (≈ 1.89 µM)

NC(=O)c1c(F)ccc(OCc2nc3cc(Cl)cnc3s2)c1F
MIC [17]: 0.5 to 1 µg/mL (≈ 1.41 to 2.81 µM) | MIC [18]: 0.5 to 1 µg/mL (≈ 1.41 to 2.81 µM) | MIC [19]: 0.5 to 1 µg/mL (≈ 1.41 to 2.81 µM) | survival [20]: 100% | half-life [21]: 0.56 h

CN1CCC(C(=O)NC(=O)c2c(F)ccc(OCc3nc4cc(C(F)(F)F)cnc4s3)c2F)CC1
Activity [22]: 2 log10CFU

COc1ccc2cc3[n+](cc2c1OC)CCc1cc2c(cc1-3)OCO2.[Cl-] [BERBERINE CHLORIDE]
MIC [8]: 32 to 128 µg/mL | MIC [9]: 2 to 8 µg/mL | MIC [11]: 4 to 16 µg/mL | MIC [12]: 32 to 128 µg/mL | MIC [13]: 2 to 8 µg/mL | IC50 [23]: 10 µM | IC50 [24]: 16 µM

NC(=O)c1c(F)ccc(OCc2nc3cc(C(F)(F)F)cnc3s2)c1F
MIC [25]: 1 µg/mL (≈ 2.57 µM) | MIC [26]: 1 µg/mL (≈ 2.57 µM) | MIC [27]: 1 µg/mL (≈ 2.57 µM) | MIC [28]: 1 µg/mL (≈ 2.57 µM) | MIC [29]: 1 µg/mL (≈ 2.57 µM) | MIC [30]: 1 µg/mL (≈ 2.57 µM) | half-life [21]: 3.65 h

H-GLLRKGGEKIGEKLKKIGQKIKNFFQKLVPQPEQ-OH
MIC [31]: 0.5 to 64 µM | MIC [32]: 0.5 to 64 µM | MIC [33]: 0.5 to 64 µM | MIC [34]: 0.5 to 64 µM

CCCCOC(=O)Nc1cc2nc(C3CCCCC3)[nH]c2cc1N(CC)CC
MIC99 [1]: 0.63 µg/mL (≈ 1.63 µM) | MIC99 [2]: 1.25 µg/mL (≈ 3.23 µM) | MIC99 [3]: 1.25 µg/mL (≈ 3.23 µM) | MIC99 [4]: 1.25 µg/mL (≈ 3.23 µM) | Activity [35]: 0.41 log10CFU | Activity [36]: 0.7 log10CFU

CCC(C)c1ccc(NC(=O)c2cccc3[nH]c(-c4cccs4)nc23)cc1 (centres undefined)
IC50 [37]: 1 µM | IC50 [38]: 1.6 µM

CC(=O)O[C@@]12CO[C@@H]1C[C@H](O)[C@@]1(C)C(=O)C(=O)C3=C(C)[C@@H](OC(=O)/C=C/c4ccc5ccccc5c4)C[C@@](O)([C@@H](OC(=O)c4ccccc4)[C@H]21)C3(C)C
MIC [39]: 30 µM (≈ 21.7 µg/mL) | MIC [40]: 60 µM (≈ 43.4 µg/mL)
